# PMC8808171, “Nonselective TRPC channel inhibition and suppression of aminoglycoside-induced premature termination codon readthrough by the small molecule AC1903” (The Journal of Biological Chemistry, 2022)
# Entries after “also recorded” stand apart in the source; their conditions may differ.
# Target: T1, TRPV1:V1 (Rattus norvegicus, UniProt O35433)
# T1 construct: expressed in transfected cells; host or cells: WT HEK 293 (transient)
# Assay: [Ca2+]i recordings (Fura-2), TRPV1:V1 in HEK 293 cells
# Type: cell-based
# Procedure: Based on the findings described above, we wondered whether AC1903—which is typically used as a TRPC5 inhibitor at concentrations of 30–100 μM in cellular assays ([29], [56])—might have limited selectivity for TRPC5 channels and whether its effect on intracellular G418 levels and PTC readthrough might be the consequence of inhibition of other or multiple targets. All well-characterized TRPC channel inhibitors reported to date modulate multiple TRP(C) channels ([34], [35], [36]). […] Because limited data for the selectivity of AC1903 are available in the public domain, we decided to profile AC1903 against a selection of calcium-permeable cation channels by intracellular calcium ([Ca^2+]i) recordings using well-characterized cell lines and TRP channel activators ([46], [57], [58]), and the Ca^2+ indicator Fura-2. In these assays, cells (HEK 293, HEK T-REx, or CHO) overexpressing the relevant ion channel protein and loaded with Fura-2 AM (a cell-permeable precursor of Fura-2) were preincubated with various concentrations of AC1903 or vehicle (DMSO) for 30 min. Then, changes in ratiometric fluorescence (from background) were recorded upon addition of the respective ion channel activator.
# HEK T-REx cells expressing tetracycline-inducible TRPC4, TRPC5, TRPC5–C1,TRPC4–C1, and hPiezo1 have been described previously ([46], [57], [59], [78]). Cloning of TRPC3 has been described previously ([79]). To create cells stably expressing tetracycline-inducible TRPC3, HEK T-REx cells were transfected with pcDNA4/TO/hTRPC3 using jetPRIME transfection reagent (VWR) according to manufacturer’s instructions. After 48 h cells were put under antibiotic selection using 400 μg/ml zeocin and 10 μg/ml Blasticidin S (Invivogen)). Medium changes were carried out every 2 to 3 days to remove dead cells. […]
# T1 sequence (O35433 whole entry): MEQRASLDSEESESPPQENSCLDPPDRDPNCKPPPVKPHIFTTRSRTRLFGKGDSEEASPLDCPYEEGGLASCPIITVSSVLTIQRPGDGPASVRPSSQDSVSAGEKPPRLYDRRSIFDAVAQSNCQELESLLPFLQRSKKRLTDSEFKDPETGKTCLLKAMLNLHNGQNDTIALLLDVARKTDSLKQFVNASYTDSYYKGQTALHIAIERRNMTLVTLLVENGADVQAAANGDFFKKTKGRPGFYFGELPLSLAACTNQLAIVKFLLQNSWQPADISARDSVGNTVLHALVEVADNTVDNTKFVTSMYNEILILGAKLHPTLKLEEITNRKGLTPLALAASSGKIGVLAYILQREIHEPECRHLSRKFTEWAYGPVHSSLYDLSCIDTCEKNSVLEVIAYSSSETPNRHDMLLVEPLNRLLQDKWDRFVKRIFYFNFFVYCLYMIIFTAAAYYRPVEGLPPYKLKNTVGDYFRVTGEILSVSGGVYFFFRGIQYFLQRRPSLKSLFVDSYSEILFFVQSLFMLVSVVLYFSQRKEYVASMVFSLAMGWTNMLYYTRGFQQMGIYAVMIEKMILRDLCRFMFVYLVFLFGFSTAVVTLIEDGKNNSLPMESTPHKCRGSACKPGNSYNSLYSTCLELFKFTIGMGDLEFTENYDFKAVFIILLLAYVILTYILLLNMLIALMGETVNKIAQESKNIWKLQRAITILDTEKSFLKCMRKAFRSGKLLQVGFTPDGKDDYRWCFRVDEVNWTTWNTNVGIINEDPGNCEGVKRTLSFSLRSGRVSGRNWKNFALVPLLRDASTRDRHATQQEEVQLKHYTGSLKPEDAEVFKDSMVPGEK
smiles,measurement,setting,value
c1ccc(Cn2c(NCc3ccco3)nc3ccccc32)cc1 [AC1903],effect on capsaicin-activated TRPV1,AC1903 100 μM,small effects
same,inhibition of capsaicin-activated TRPV1,AC1903 up to 30 μM,does not affect; also recorded: did not inhibit
same,IC50,"HEK 293, activator capsaicin (500 nM)",> 50 µM
